Counter-ions that a name gives are not always drawn.
Legend:
T-47D Tam2 [1] = assay: drug sensitivity score (DSS) (DSS (dimensionless)); higher = more sensitive; extreme values may be limits of the assay; details: 4-OH-tamoxifen in medium 1 µM; 72 h
In short: (§1)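 Breast cancer cell lines and their resistant derivatives were seeded into 384-well plates holding FO2Baq library drugs at five concentrations spanning a 10 000-fold range. Resistant lines were in medium with 1 μM of the selecting drug. Cells were incubated 72 h at 37 °C, and CellTiter-Glo viability was read on a PHERAstar and normalised to vehicle-only and positive controls. Drug sensitivity score, relative IC50 (curve midpoint) and top-dose inhibition came from logistic dose–response fits (Breeze pipeline).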

MCF-7 Tam1 [2] = assay: as above; details: 4-OH-tamoxifen in medium 1 µM; 72 h
In short: as §1

ZR-75-1 [3] = assay: as above; details: 72 h
In short: as §1

BT-474 Tam2 [4] = assay: as above; details: 4-OH-tamoxifen in medium 1 µM; 72 h
In short: as §1

BT-474 [5] = assay: as above; details: 72 h
In short: as §1

T-47D Tam1 [6] = assay: as above; details: 4-OH-tamoxifen in medium 1 µM; 72 h
In short: as §1

MCF-7 [7] = assay: as above; details: 72 h
In short: as §1

ZR-75-1 Tam1 [8] = assay: as above; details: 4-OH-tamoxifen in medium 1 µM; 72 h
In short: as §1

ZR-75-1 Tam2 [9] = assay: as above; details: 4-OH-tamoxifen in medium 1 µM; 72 h
In short: as §1

T-47D [10] = assay: as above; details: 72 h
In short: as §1

BT-474 Tam1 [11] = assay: as above; details: 4-OH-tamoxifen in medium 1 µM; 72 h
In short: as §1

T-47D Tam2 [12] = assay: relative IC50 (midpoint of fitted logistic curve, plateau may be below 50% inhibition; CellTiter-Glo viability); higher = less potent; details: 4-OH-tamoxifen in medium 1 µM; 72 h
In short: as §1

MCF-7 Tam1 [13] = assay: as above; details: 4-OH-tamoxifen in medium 1 µM; 72 h
In short: as §1

ZR-75-1 [14] = assay: as above; details: 72 h
In short: as §1

BT-474 Tam2 [15] = assay: as above; details: 4-OH-tamoxifen in medium 1 µM; 72 h
In short: as §1

BT-474 [16] = assay: as above; details: 72 h
In short: as §1

T-47D Tam1 [17] = assay: as above; details: 4-OH-tamoxifen in medium 1 µM; 72 h
In short: as §1

MCF-7 [18] = assay: as above; details: 72 h
In short: as §1

ZR-75-1 Tam1 [19] = assay: as above; details: 4-OH-tamoxifen in medium 1 µM; 72 h
In short: as §1

T-47D [20] = assay: as above; details: 72 h
In short: as §1

BT-474 Tam1 [21] = assay: as above; details: 4-OH-tamoxifen in medium 1 µM; 72 h
In short: as §1

ZR-75-1 Tam2 [22] = assay: as above; details: 4-OH-tamoxifen in medium 1 µM; 72 h
In short: as §1

SMILES | drug sensitivity score (T-47D Tam2 [1]) | drug sensitivity score (MCF-7 Tam1 [2]) | drug sensitivity score (ZR-75-1 [3]; 4-OH-tamoxifen in medium 0 µM) | drug sensitivity score (ZR-75-1 [3]; 4-OH-tamoxifen in medium 1 µM) | drug sensitivity score (BT-474 Tam2 [4]) | drug sensitivity score (BT-474 [5]; 4-OH-tamoxifen in medium 0 µM) | drug sensitivity score (BT-474 [5]; 4-OH-tamoxifen in medium 1 µM) | drug sensitivity score (T-47D Tam1 [6]) | drug sensitivity score (MCF-7 [7]; 4-OH-tamoxifen in medium 0 µM) | drug sensitivity score (MCF-7 [7]; 4-OH-tamoxifen in medium 1 µM) | drug sensitivity score (ZR-75-1 Tam1 [8]) | drug sensitivity score (ZR-75-1 Tam2 [9]) | drug sensitivity score (T-47D [10]; 4-OH-tamoxifen in medium 0 µM) | drug sensitivity score (T-47D [10]; 4-OH-tamoxifen in medium 1 µM) | drug sensitivity score (BT-474 Tam1 [11]) | relative IC50 (T-47D Tam2 [12]) | relative IC50 (MCF-7 Tam1 [13]) | relative IC50 (ZR-75-1 [14]; 4-OH-tamoxifen in medium 0 µM) | relative IC50 (ZR-75-1 [14]; 4-OH-tamoxifen in medium 1 µM) | relative IC50 (BT-474 Tam2 [15]) | relative IC50 (BT-474 [16]; 4-OH-tamoxifen in medium 0 µM) | relative IC50 (BT-474 [16]; 4-OH-tamoxifen in medium 1 µM) | relative IC50 (T-47D Tam1 [17]) | relative IC50 (MCF-7 [18]; 4-OH-tamoxifen in medium 1 µM) | relative IC50 (ZR-75-1 Tam1 [19]) | relative IC50 (T-47D [20]; 4-OH-tamoxifen in medium 0 µM) | relative IC50 (T-47D [20]; 4-OH-tamoxifen in medium 1 µM) | relative IC50 (BT-474 Tam1 [21]) | relative IC50 (MCF-7 [18]; 4-OH-tamoxifen in medium 0 µM) | relative IC50 (ZR-75-1 Tam2 [22])
COCC1(CO)C(=O)C2CCN1CC2 (stereo unspecified) [Prima-1 Met] | 0 | 0 | 0 | 0 | 0 | 0 | 0 | 0 | 0.0674 | 0 | 0 | 0.24 | 0 | 0 | 0 | > 10 µM | > 10 µM | > 10 µM | > 10 µM | > 10 µM | > 10 µM | > 10 µM | > 10 µM | > 10 µM | > 10 µM | > 10 µM | > 10 µM | > 10 µM |  | 
CN(C)CCOc1ccc(/C(=C(/CCCl)c2ccccc2)c2ccccc2)cc1 [Toremifene (citrate)] | 3.09 | 1.2 | 0 | 0.599 | 5.77 | 0.652 | 4.16 | 3.53 | 0.353 | 3.26 | 0.357 | 0.814 | 0 | 0 | 4.96 | 3.46 µM | 4.15 µM | > 10 µM |  | 3.02 µM |  | 3.52 µM | 1.86 µM | 3.69 µM |  | > 10 µM | > 10 µM | 3.41 µM |  | 
CCCCCOC(=O)Nc1nc(=O)n([C@@H]2O[C@H](C)[C@@H](O)[C@H]2O)cc1F [Capecitabine] | 0 | 0 | 1.86 | 0 | 0 | 0 | 0 | 0 | 0 | 0 | 0.129 | 0.0192 | 0 | 0 | 0 | > 10 µM | > 10 µM |  | > 10 µM | > 10 µM | > 10 µM | > 10 µM | > 10 µM | > 10 µM |  | > 10 µM | > 10 µM | > 10 µM | > 10 µM | 
C[C@@H]1CCN(C(=O)CC#N)C[C@@H]1N(C)c1ncnc2[nH]ccc12 [Tofacitinib (Tasocitinib)] | 0 | 0 | 0 | 0 | 0 | 0 | 0 | 0 | 0 | 0.208 | 0 | 0.0132 | 0 | 0 | 0 | > 5 µM | > 5 µM | > 5 µM | > 5 µM | > 5 µM | > 5 µM | > 5 µM | > 5 µM |  | > 5 µM | > 5 µM | > 5 µM | > 5 µM | > 5 µM | 
N#CCNC(=O)c1ccc(-c2ccnc(Nc3ccc(N4CCOCC4)cc3)n2)cc1 [Momelotinib (CYT-387)] | 1.42 | 3.23 | 0 | 0.68 | 0.414 | 0 | 0 | 5.08 | 1.83 | 4.64 | 0 | 0 | 0.52 | 0 | 1.15 | 4.18 µM | 2.03 µM | > 10 µM |  |  | > 10 µM | > 10 µM | 0.346 µM | 2.52 µM | > 10 µM |  | > 10 µM | 5.2 µM | 4.2 µM | 
Nc1ccn([C@@H]2O[C@H](CO)[C@@H](O)[C@@H]2O)c(=O)n1 [Cytarabine] | 0 | 0 | 3.25 | 0.265 | 0 | 0 | 0 | 4.13 | 4.84 | 1.56 | 1.96 | 2.46 | 2.75 | 0 | 0 | > 10 µM | > 10 µM | 1.5 µM |  | > 10 µM | > 10 µM | > 10 µM | 0.58 µM |  |  | 1.94 µM | > 10 µM | > 10 µM | 0.435 µM | 
Oc1ncnc2[nH]ncc12 [Allopurinol] | 0 | 0 | 0 | 0 | 0 | 0 | 2.18 | 0 | 0 | 0 | 0 | 0 | 0 | 0 | 0 | > 10 µM | > 10 µM | > 10 µM | > 10 µM |  | > 10 µM |  | > 10 µM | > 10 µM |  | > 10 µM | > 10 µM | > 10 µM | > 10 µM | > 10 µM
CC/C(=C(\c1ccc(O)cc1)c1ccc(OCCN(C)C)cc1)c1ccccc1 [4-hydroxytamoxifen] | 4.19 | 1.87 | 0 | 1.5 | 4.79 | 0.905 | 5.15 | 2.07 | 3.05 | 4.41 | 0.263 | 1.3 | 0.306 | 2.56 | 9.04 | 3.36 µM | 3.94 µM | > 10 µM | 3.2 µM | 3.57 µM |  | 3.35 µM | 2.88 µM | 3.34 µM |  |  | 3.9 µM | 1.59 µM | 2.87 µM | 
CCN(CC)CCOc1ccc(C(=C(Cl)c2ccccc2)c2ccccc2)cc1 [Clomifene citrate] | 2.56 | 3.09 | 0.493 | 1.42 | 8.36 | 4.53 | 5.95 | 3.26 | 0 | 6.09 | 1.02 | 2.03 | 0.434 | 1.21 | 5.39 | 3.17 µM | 3.2 µM |  | 3.81 µM | 1.79 µM | 3.34 µM | 2.38 µM | 1.83 µM | 2.36 µM |  |  |  | 2.8 µM |  | 3.33 µM
CCC1=C[C@@H]2CN(C1)Cc1c([nH]c3ccccc13)[C@@](C(=O)OC)(c1cc3c(cc1OC)N(C)[C@H]1[C@@](O)(C(=O)OC)[C@H](OC(C)=O)[C@]4(CC)C=CCN5CC[C@]31[C@@H]54)C2 [Vinorelbine (tartrate)] | 8.26 | 0 | 9.06 | 3.16 | 14.3 | 13.8 | 23 | 7.24 | 9.78 | 12.3 | 1.16 | 2.36 | 6.22 | 2.28 | 17.2 | 0.583 µM | > 10 µM | 0.0433 µM | 1.54 µM | 0.442 µM | 0.0429 µM | 0.0843 µM | 0.687 µM | 0.141 µM |  |  | 1.73 µM | 0.249 µM | 0.202 µM | 
COc1cc(Nc2c(C#N)cnc3cc(OCCCN4CCN(C)CC4)c(OC)cc23)c(Cl)cc1Cl [Bosutinib] | 6.72 | 2.05 | 0.173 | 0.731 | 8.71 | 4.93 | 10.5 | 7.41 | 4.57 | 3.41 | 0.537 | 3.08 | 2.64 | 3.44 | 8.93 | 1.78 µM | 4.02 µM |  |  | 1.61 µM | 2.95 µM | 1.13 µM | 1.32 µM | 4.01 µM |  | 2.48 µM | 3.38 µM | 1.58 µM | 3.14 µM | 3.19 µM
COc1ccc(S(=O)(=O)Nc2cccnc2Nc2ccc(O)cc2)cc1 [ABT-751] | 4.48 | 0 | 5.44 | 0.184 | 6.39 | 6.81 | 9.13 | 6.4 | 6.87 | 4.14 | 0 | 1.41 | 0 | 0 | 6.57 | 0.92 µM | > 10 µM | 0.412 µM |  | 0.992 µM | 0.347 µM | 0.891 µM | 1.17 µM | 1.49 µM | > 10 µM | > 10 µM | > 10 µM | 1.35 µM | 0.615 µM | 
C=CCN(/C=C1/C(=O)O[C@H](COC)[C@@]2(C)C1=C(O)C(=O)C1=C2[C@H](OC(C)=O)C[C@]2(C)C(=O)CC[C@@H]12)CC=C [Sonolisib (PX-866)] | 0 | 0 | 0 | 0.361 | 0 | 0 | 0 | 0 | 0 | 0 | 0.103 | 0.0742 | 0 | 0 | 0 | > 10 µM | > 10 µM | > 10 µM |  | > 10 µM | > 10 µM | > 10 µM | > 10 µM |  |  | > 10 µM | > 10 µM | > 10 µM | > 10 µM | 
COc1cc([C@@H]2c3cc4c(cc3[C@@H](O[C@@H]3O[C@@H]5CO[C@@H](C)O[C@H]5[C@H](O)[C@H]3O)[C@H]3COC(=O)[C@H]23)OCO4)cc(OC)c1O [Etoposide] | 0 | 0 | 3.42 | 0.761 | 0 | 0 | 1.71 | 5.76 | 0 | 0.239 | 1.42 | 1.13 | 6.74 | 0.625 | 0.0698 | > 10 µM | > 10 µM | 0.612 µM |  | > 10 µM | > 10 µM |  | 0.667 µM |  |  | 0.605 µM |  |  | > 10 µM | 
Cc1cc(Nc2cc(CN3CCOCC3)c3nc(C)c(Cc4ccc(Cl)cc4F)n3n2)n[nH]1 | 3.58 | 2.42 | 0 | 0 | 12.8 | 0 | 7.73 | 3.55 | 6.61 | 4.32 | 0 | 0.848 | 1.41 | 1.86 | 16.2 | 1.98 µM | 3.26 µM | > 10 µM | > 10 µM | 0.749 µM | > 10 µM | 1.04 µM | 1.56 µM | 2.7 µM | > 10 µM |  |  | 0.329 µM | 1.41 µM | 
